Publication PMC11513893, “Discovery of Oral Degraders of the ROS1 Fusion Protein with Potent Activity against Secondary Resistance Mutations” (Journal of Medicinal Chemistry, 2024)

What was measured:
[1] = tested on: Ba/F3 ROS1-G2032R; assay: Antiproliferation assay; assay type: cell-based, mouse; details: Mus musculus, BaF3; Ba/F3 cells, cell growth inhibition, 72 h
[2] = tested on: Ba/F3 ROS1 (SLC34A2) D2033N; assay: Antiproliferation assay; assay type: cell-based; details: Mus musculus, BaF3; Ba/F3 cell line
Protocol: (§1) Ba/F3 immortalized murine bone marrow–derived pro-B cells were obtained from Creative Biogene (Shirley, NY) and cultured in RPMI supplemented with 10% FBS and IL3 (0.5 ng/mL). Ba/F3 cells expressing ROS1 variants were maintained in RPMI supplemented with 10% FBS and puromycin (0.7 mg/mL). […] Each compound was dissolved in DMSO and serially diluted in RPMI for cell culture experiments.
(§2) To assess the 72 h effect of drug treatment on cell proliferation, 2000 to 3000 cells were plated in replicates of three in 96-well plates. The plates were placed in an incubator at 37 °C, 5% CO2 for 72 h. Following drug treatments, the cells were incubated with the Alamar Blue Assay reagent (BioRad), 5 μL each well for 4 h at 37 °C and 5% CO2. Luminescence was measured on a multiplate reader and analyzed. […] IC50 values were determined using a nonlinear regression model with a sigmoidal dose response in GraphPad. The data were collected based on triplicate experiments, and presented as mean ± SD.

[3] = tested on: Ba/F3 ROS1 (SLC34A2) G2032R-F2075 V; assay: Antiproliferation assay; assay type: cell-based; details: Mus musculus, BaF3; Ba/F3 cell line
Protocol: as §1, §2

[4] = tested on: Ba/F3 ROS1 (SLC34A2) L2026M; assay: Antiproliferation assay; assay type: cell-based; details: Mus musculus, BaF3; Ba/F3 cell line
Protocol: as §1, §2

[5] = tested on: Ba/F3 ROS1 (SLC34A2) V2098I; assay: Antiproliferation assay; assay type: cell-based; details: Mus musculus, BaF3; Ba/F3 cell line
Protocol: as §1, §2

[6] = Metabolic stability in rat microsomes; assay type: in vitro ADME; details: rat, pooled rat microsomes, pH 7.4, 250 nM compound, NADPH, 37 °C
Protocol: Pooled human and rat microsomes were prepared and stored at −80 °C prior to use. A master-mix containing microsome, phosphate buffer, and test compound (9 series) solution was made as follows: (1) 3 μL of microsome (20 mg/mL) was diluted with mixed 30 μL of potassium phosphate buffer (pH 7.4; 10×) and 246 μL of water; (2) 3 μL of 25 μM drug solution was added to the microsome; (3) the master solution was prewarmed at 37 °C for 5 min. NADPH solution A (15 μL) and NADPH solution B (3 μL) from Promega were added to the above-mentioned master solution to initiate the reaction. The final concentration of 9 compounds in the reaction system was 250 nM. An aliquot of 20 μL was pipetted from the reaction solution and stopped by the addition of 180 μL of cold MeCN containing 25 ng of Tamoxifen-(N,N-dimethyl-13C2)-15N as an internal standard at the designated time points (0, 5, 15, 30, 45, and 60 min). The incubation solution was vortexed-mixed (800 rpm/10 min) and centrifuged at 3500 rpm for 10 min to precipitate proteins. The supernatant was collected and used for the LC/MS/MS analysis. The natural log of the remaining percentage of the test compound was plotted against time and the gradient of the line was determined.

[7] = Pharmacokinetics study in Sprague–Dawley rats; assay type: in vivo; details: rat
Protocol: Four to 6 weeks old Sprague–Dawley rats [Crl: CD (SD)] (SPF/VAF) were purchased from Charles River (Wilmington MA). Animals were quarantined/acclimated for 2–6 weeks prior to dose initiation. Sprague–Dawley rats were given oral administration of test compounds (20% PG, 5% Solutol, and 75% of 20% HP-β-CD in water) at different dose levels. After treatment with the compounds, whole blood was collected from each study animal by puncture of the tail vein (0.4 mL of whole blood from rats) into tubes containing K2EDTA at each time point. The plasma samples were divided into 2 aliquots (approximately equal in volume) and stored frozen at −75 ± 15 °C within 2 h of the collection until analysis.
The stock solution of the test compound (0.01 M) in DMSO was prepared and stored at −20 ± 5 °C. The desired serial concentrations of working reference analyte solutions were achieved by diluting a stock analyte solution with 50% acetonitrile (0.1% formic acid) in water solution. The bioanalytical LC–MS/MS method was developed for quantitative determination of each test compound in Sprague–Dawley rat plasma with acceptable selectivity, sensitivity, calibration curve, precision, and accuracy. The analytical method is applicable for the determination of test compounds in Sprague–Dawley rat plasma with a lower limit of quantification of 10.0 ng/mL and an upper limit of quantification of 5000 ng/mL. Five microliters of diluted supernatant was injected into the LC–MS/MS system (TSQ Quantis) and a SynergiTM 4 μm Fusion-RP 80 Å (50 × 2 mm) column using gradient elution and a Triple Quad mass spectrometer) for quantitative analysis. The mobile phases used were 0.1% formic acid in deionized water and 0.1% formic acid in acetonitrile. The pharmacokinetic parameters T1/2 (the biological half-life), Cmax (maximal concentration), Tmax (time at which Cmax is observed), and AUC (area under the plasma concentration–time curve) were calculated from the plasma concentration versus time data using WinNonlin (PhoenixTM, version 8.1, Mountain View, CA, USA).

[8] = biological target: FER (Homo sapiens, UniProt P16591); assay: Kinase assay; assay type: biochemical; details: average of duplicate measurements
[9] = biological target: CLK1 (Homo sapiens, UniProt P49759); assay: Kinase assay; assay type: biochemical; details: average of duplicate measurements
[10] = biological target: CHEK1 (Homo sapiens, UniProt O14757); assay: Kinase assay; assay type: biochemical; details: average of duplicate measurements
[11] = biological target: ERBB2 (Homo sapiens, UniProt P04626); assay: Kinase assay; assay type: biochemical; details: average of duplicate measurements
[12] = biological target: EGFR (Homo sapiens, UniProt P00533); assay: Kinase assay; assay type: biochemical; details: average of duplicate measurements
[13] = biological target: C-MET (Homo sapiens, UniProt P08581); assay: Kinase assay; assay type: biochemical; details: average of duplicate measurements
C-MET, sequence (P08581 25-1390): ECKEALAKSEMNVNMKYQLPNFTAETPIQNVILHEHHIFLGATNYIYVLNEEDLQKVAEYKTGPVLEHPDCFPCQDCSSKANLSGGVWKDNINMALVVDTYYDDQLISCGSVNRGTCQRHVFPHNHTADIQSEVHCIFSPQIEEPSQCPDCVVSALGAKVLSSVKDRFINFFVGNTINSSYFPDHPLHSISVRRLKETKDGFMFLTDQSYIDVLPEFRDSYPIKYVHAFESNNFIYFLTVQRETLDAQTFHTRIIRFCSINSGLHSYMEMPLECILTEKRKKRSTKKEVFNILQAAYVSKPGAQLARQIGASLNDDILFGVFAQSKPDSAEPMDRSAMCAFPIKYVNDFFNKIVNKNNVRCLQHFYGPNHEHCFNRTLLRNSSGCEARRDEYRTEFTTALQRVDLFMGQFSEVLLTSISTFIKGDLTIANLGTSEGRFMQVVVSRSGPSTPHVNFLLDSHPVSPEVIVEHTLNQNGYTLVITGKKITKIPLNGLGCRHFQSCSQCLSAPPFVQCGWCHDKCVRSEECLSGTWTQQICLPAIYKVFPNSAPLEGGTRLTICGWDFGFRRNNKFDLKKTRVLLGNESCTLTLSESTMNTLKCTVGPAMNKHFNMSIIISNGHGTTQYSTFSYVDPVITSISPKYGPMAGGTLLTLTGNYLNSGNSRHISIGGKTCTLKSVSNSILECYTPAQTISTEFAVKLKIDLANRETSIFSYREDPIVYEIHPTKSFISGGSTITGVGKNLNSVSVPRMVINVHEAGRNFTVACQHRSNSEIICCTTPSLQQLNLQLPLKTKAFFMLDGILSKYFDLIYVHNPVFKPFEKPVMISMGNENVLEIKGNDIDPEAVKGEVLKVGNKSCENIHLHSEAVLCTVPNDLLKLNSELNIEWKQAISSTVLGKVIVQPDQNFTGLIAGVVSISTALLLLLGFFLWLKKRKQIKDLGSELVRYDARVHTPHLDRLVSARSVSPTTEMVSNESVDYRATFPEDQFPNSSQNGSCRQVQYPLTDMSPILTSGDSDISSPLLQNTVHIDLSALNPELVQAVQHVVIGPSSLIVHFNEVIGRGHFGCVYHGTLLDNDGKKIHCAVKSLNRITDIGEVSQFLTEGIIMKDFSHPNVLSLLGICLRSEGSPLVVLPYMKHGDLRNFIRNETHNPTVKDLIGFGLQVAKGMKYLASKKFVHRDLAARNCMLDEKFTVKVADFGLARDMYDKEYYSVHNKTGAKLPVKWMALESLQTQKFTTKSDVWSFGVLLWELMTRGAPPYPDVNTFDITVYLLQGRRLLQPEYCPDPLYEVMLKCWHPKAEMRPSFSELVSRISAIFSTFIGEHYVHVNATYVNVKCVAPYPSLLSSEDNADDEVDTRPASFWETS

CLK1, sequence (P49759 whole entry): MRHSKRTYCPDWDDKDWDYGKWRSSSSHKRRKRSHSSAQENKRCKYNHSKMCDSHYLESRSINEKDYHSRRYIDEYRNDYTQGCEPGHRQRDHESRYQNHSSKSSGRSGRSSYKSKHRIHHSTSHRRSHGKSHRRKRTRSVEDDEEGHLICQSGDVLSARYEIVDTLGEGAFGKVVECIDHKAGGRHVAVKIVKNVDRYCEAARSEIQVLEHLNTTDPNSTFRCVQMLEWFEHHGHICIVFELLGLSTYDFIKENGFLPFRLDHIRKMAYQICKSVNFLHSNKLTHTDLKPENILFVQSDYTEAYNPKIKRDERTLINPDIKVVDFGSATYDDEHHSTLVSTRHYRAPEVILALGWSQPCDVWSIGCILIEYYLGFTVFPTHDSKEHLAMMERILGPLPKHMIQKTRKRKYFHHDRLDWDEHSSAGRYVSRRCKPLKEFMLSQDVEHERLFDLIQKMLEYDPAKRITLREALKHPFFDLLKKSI
ERBB2, sequence (P04626 23-1255, species assumed): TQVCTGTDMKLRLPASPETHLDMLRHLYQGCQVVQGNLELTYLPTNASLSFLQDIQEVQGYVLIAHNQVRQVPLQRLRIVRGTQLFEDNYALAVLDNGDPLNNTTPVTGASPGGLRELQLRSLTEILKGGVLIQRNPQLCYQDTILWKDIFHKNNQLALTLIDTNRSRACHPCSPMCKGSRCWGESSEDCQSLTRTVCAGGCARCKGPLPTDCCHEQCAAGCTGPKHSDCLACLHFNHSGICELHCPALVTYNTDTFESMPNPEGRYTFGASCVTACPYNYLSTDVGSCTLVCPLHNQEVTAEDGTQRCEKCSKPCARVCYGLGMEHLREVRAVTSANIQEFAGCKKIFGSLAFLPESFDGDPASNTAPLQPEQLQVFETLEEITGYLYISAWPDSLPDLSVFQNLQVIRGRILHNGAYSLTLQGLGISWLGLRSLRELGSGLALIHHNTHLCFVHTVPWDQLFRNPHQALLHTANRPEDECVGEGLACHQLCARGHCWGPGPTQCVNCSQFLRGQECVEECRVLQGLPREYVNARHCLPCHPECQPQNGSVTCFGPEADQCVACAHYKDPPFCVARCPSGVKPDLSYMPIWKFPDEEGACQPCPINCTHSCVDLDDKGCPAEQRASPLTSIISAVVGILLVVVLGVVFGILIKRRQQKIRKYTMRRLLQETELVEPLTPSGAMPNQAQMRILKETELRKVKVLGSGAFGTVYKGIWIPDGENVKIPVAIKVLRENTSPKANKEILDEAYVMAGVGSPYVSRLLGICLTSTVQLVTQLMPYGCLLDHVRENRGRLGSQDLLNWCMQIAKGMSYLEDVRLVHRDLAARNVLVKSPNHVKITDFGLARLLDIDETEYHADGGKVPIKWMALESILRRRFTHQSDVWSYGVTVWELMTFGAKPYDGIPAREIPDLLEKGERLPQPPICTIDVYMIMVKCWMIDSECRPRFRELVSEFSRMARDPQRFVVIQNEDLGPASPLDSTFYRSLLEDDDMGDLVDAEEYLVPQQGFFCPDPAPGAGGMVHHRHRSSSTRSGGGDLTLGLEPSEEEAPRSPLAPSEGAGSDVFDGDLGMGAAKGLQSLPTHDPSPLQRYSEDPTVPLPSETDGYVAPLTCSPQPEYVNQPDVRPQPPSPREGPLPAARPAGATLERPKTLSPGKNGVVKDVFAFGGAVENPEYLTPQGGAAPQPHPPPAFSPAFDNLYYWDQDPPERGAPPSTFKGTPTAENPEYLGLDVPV
FER, sequence (P16591 whole entry, species assumed): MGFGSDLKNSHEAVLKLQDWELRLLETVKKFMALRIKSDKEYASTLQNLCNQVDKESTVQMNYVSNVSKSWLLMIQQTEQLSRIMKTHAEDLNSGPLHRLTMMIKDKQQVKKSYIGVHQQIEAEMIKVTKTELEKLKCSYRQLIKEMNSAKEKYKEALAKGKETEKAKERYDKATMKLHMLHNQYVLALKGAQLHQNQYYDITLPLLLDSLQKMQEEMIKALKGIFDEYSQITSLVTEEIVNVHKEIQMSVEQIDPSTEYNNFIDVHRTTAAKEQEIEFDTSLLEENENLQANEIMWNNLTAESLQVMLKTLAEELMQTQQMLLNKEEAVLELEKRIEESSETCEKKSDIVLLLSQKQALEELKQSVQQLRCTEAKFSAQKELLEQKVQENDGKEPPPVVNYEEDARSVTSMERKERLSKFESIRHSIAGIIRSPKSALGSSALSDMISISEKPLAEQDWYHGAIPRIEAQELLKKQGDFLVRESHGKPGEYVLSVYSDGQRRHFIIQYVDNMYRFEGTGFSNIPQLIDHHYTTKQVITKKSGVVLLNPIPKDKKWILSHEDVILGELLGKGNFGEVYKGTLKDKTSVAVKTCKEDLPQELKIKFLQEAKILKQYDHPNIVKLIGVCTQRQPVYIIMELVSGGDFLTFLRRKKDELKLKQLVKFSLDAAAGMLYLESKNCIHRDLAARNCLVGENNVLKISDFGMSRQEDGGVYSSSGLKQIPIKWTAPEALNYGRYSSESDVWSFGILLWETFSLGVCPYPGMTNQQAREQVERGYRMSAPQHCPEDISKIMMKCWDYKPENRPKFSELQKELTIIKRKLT
EGFR, sequence (P00533 25-1210, species assumed): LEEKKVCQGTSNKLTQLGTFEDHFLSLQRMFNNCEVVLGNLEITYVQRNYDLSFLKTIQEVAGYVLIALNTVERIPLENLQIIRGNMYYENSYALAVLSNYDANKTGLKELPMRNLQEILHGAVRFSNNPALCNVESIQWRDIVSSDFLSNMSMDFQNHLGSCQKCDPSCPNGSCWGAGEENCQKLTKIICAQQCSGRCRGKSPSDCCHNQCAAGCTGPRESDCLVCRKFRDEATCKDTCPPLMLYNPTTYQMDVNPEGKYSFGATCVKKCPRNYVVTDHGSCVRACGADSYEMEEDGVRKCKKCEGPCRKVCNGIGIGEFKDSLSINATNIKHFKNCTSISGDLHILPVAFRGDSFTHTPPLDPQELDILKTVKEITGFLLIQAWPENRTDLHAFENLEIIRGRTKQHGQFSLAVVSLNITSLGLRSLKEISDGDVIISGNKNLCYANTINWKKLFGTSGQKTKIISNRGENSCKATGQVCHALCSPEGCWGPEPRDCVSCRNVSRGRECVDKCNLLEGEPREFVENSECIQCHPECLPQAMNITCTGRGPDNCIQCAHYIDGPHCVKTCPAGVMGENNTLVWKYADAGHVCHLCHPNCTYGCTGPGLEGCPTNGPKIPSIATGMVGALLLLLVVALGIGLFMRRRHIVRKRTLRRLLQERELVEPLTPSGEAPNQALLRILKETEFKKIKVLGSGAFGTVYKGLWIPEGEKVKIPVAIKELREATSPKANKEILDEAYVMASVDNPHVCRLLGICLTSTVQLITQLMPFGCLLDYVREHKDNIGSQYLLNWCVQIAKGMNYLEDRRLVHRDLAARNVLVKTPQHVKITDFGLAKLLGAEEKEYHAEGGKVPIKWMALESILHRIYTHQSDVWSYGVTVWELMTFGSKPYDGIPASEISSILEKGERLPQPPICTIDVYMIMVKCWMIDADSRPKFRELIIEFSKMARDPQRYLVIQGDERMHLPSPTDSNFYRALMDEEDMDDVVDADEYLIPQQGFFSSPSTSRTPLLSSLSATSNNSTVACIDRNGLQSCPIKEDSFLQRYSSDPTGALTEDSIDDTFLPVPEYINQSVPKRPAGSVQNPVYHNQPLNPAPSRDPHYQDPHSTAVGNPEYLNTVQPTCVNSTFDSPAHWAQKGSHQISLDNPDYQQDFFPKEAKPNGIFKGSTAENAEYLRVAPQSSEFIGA

- IC50 [1]: 6.3 ± 2.1 nM
- IC50 [2]: 9.7 ± 2.6 nM
- IC50 [3]: 5.6 ± 0.6 nM
- IC50 [4]: 2.5 ± 0.6 nM
- IC50 [5]: 4.6 ± 2.1 nM
- microsomal CLint at 1 h, 0.25 µM [6]: 17.4 µL/min/mg
- half-life at 1 h, 0.25 µM ([6]; read-out: metabolic stability in rat microsomes T1/2): 1.33 h
- Cmax at 24 h ([7]; Sprague-Dawley [Crl: CD (SD)], plasma, 5 mg/kg po): 94 ng/mL
- bioavailability ([7]; Sprague-Dawley [Crl: CD (SD)], plasma, 5 mg/kg po vs 0.5 mg/kg iv): 7.3%
- AUC (po) ([7]; 5 mg/kg po): 1267 ng·h/mL
- T1/2 ([7]; 5 mg/kg po): 7.32 h
- Tmax ([7]; 5 mg/kg po): 2 h
- IC50 [8]: 3.1 nM
- IC50 [9]: 35 nM
- IC50 [10]: 40 nM
- IC50 [11]: 42 nM
- IC50 [12]: 69 nM
- IC50 [13]: 95 nM
SMILES: COc1cc(N2CCC(N3CCN(CC4CCN(c5ccc6c(c5)CN(C5CCC(=O)NC5=O)C6=O)CC4)CC3)CC2)ccc1Nc1ncc(Cl)c(Nc2ccccc2P(C)(C)=O)n1 (stereo not drawn) [9o, 3-(5-(4-((4-(1-(4-((5-Chloro-4-((2-(dimethylphosphoryl)phenyl)amino)pyrimidin-2-yl)amino)-3-methoxyphenyl)piperidin-4-yl)piperazin-1-yl)methyl)piperidin-1-yl)-1-oxoisoindolin-2-yl)piperidine-2,6-dione]
